According to PubChem BioAssay AID743359 (Molecular Libraries Program, Specialized Chemistry Center, …, 2014):
Active and inactive are the calls of the source.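 How the source made its calls: active means compounds whose half-maximal inhibitory concentration IC50 is 20 µM or lower; inactive means the rest.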

System: isolated mouse liver mitochondria, Ca2+ swelling, A540 20 min
Experiment: mitochondrial swelling inhibition, absorbance readout – dry powder samples, uHTS hits, dose response (AID 743359)

SMILES	IC50
O=S(=O)(Nc1ccc(CN2CCCCC2)cc1)c1cc(Cl)cc(Cl)c1	> 50 µM (inactive)
O=C(Nc1ccc(Cl)cc1)c1cc(-c2ccccc2)on1	> 50 µM (inactive)
Cc1ccc(NC(=O)c2cc(-c3cccc(O)c3)on2)cc1Cl	0.83 µM
O=C(Nc1cccc(Cl)c1)c1cc(-c2ccccc2)on1	47.2 µM (inactive)
CCN(C(=O)c1cc(Cl)ccc1OC)c1ccccc1	> 50 µM (inactive)
COc1c(Cl)cccc1NC(=O)c1cc(-c2cccc(O)c2)on1	27.6 µM (inactive)
CC(C)C1CCN(CCCC(=O)c2ccc(Br)cc2)CC1	10.3 µM
O=C(Nc1cccc(F)c1)c1cc(-c2cccc(O)c2)on1	4.61 µM
COc1ccc(/C=C/C(=O)Nc2cccc(Cl)c2)cc1O	< 0.391 µM
O=C(Nc1cccc(Cl)c1)c1cc(-c2ccc(Cl)cc2)on1	> 50 µM (inactive)
O=C(Nc1ccc(Br)cc1)c1cc(C2CC2)on1	6.34 µM
O=C(Nc1ccc(F)cc1F)c1cc(-c2ccccc2)on1	> 50 µM (inactive)
O=C(Nc1ccccc1C(F)(F)F)c1cc(-c2ccccc2)on1	> 50 µM (inactive)
CC1(C)CCN(CCCC(=O)c2ccc(Br)cc2)CC1	13.9 µM
COc1ccc(NC(=O)c2cc(-c3cccc(O)c3)on2)cc1Cl	< 0.391 µM
O=S(=O)(Nc1ccc(CN2CCCCC2)cc1)c1ccc(F)c(Cl)c1	> 50 µM (inactive)
Cc1ccc(-c2cc(C(=O)Nc3cccc(Cl)c3)no2)cc1	> 50 µM (inactive)
COc1ccc(Cl)cc1C(=O)Nc1ccccc1	6.35 µM (inactive)
O=C(Nc1ccc(Cl)cc1)c1cc(-c2cccc(O)c2)on1	0.423 µM
Cc1c(Cl)cccc1NC(=O)c1cc(-c2cccc(O)c2)on1	< 0.391 µM
CCc1ccccc1NC(=O)c1cc(-c2ccccc2)on1	> 50 µM (inactive)

SMILES	IC50
C[C@@H]1CCC[C@H](C)N1CCCC(=O)c1ccc(Br)cc1	> 50 µM (inactive)
COc1ccc(NC(=O)c2cc(-c3ccc(Cl)cc3)on2)cc1Cl	> 50 µM (inactive)
CC1CCN(CCCC(=O)c2ccc(Br)cc2)CC1	40.9 µM (inactive)
Cc1ccc(Cl)cc1NC(=O)c1cc(-c2cccc(O)c2)on1	< 0.391 µM
O=C(Nc1ccc(OCc2ccccc2)c(Cl)c1)c1cc(-c2cccc(O)c2)on1	> 50 µM (inactive)
O=C(Nc1cc(Cl)cc(Cl)c1)c1cc(-c2cccc(O)c2)on1	< 0.391 µM
O=C(Nc1ccccc1OCc1ccccc1)c1cc(-c2cccc(O)c2)on1	> 50 µM (inactive)
Cc1cc(NC(=O)c2cc(-c3ccc(F)cc3)on2)no1	> 50 µM (inactive)
O=C(Nc1cccc(Cl)c1Cl)c1cc(-c2cccc(O)c2)on1	10.4 µM
O=C(Nc1cc(Cl)ccc1Cl)c1cc(-c2cccc(O)c2)on1	1.6 µM
O=C(Nc1cccc(Cl)c1)c1cc(-c2cccc(O)c2)on1	< 0.391 µM
COc1ccc(C(=O)CCN2CCCC(C)C2)cc1 (centres undefined)	38 µM (inactive)
CC(C)c1cc(C(=O)Nc2ccc(F)cc2F)no1	24 µM (inactive)
O=C(Nc1ccc(N2CCCCC2)cc1)c1cccc(OCc2ccccc2)c1	> 50 µM (inactive)
COc1cccc(-c2cc(C(=O)Nc3cc(Cl)ccc3C)no2)c1	40 µM (inactive)
Cc1cc(NC(=O)c2ccc(-n3cnnc3)cc2)no1	> 50 µM (inactive)
CCCc1cc(C(=O)Nc2ccc(Br)cc2)no1	> 50 µM (inactive)
CCCc1cc(C(=O)Nc2c(F)cc(F)cc2Br)no1	4.96 µM
O=C(Nc1cc(Cl)ccc1F)c1cc(-c2cccc(O)c2)on1	< 0.391 µM
O=S(=O)(Nc1ccc(CN2CCCCC2)cc1)c1cccc(Cl)c1	> 50 µM (inactive)

Continued, values first:

IC50	SMILES
> 50 µM (inactive)	CN1CCN(CCc2ccc(NS(=O)(=O)c3cccc(Cl)c3)cc2)CC1
> 50 µM (inactive)	COc1ccc(Cl)c(C(=O)Nc2ccc(CN3CCOCC3)cc2)c1
13.5 µM	COc1ccc(Cl)cc1C(=O)Nc1ccc(CN2CCN(C)CC2)cc1
46.5 µM (inactive)	COc1ccccc1C(=O)Nc1ccc(CN2CCCCC2)cc1
> 50 µM (inactive)	COc1ccc(Cl)cc1C(=O)Nc1cccc(CN2CCN(C(=O)OC(C)(C)C)CC2)c1
3.84 µM	CN1CCN(CCc2ccc(NC(=O)c3cccc(OCc4ccccc4)c3)cc2)CC1
2.3 µM	CN1CCN(c2ccccc2NC(=O)c2ccc(OCc3ccccc3)cc2)CC1
> 50 µM (inactive)	COc1ccc(Cl)cc1S(=O)(=O)Nc1ccc(CCN2CCN(C)CC2)cc1
> 50 µM (inactive)	COc1ccc(Cl)c(C(=O)Nc2ccc(CCN3CCN(C(=O)OC(C)(C)C)CC3)cc2)c1
> 50 µM (inactive)	CN1CCN(c2ccc(NS(=O)(=O)c3ccc(F)c(Cl)c3)cc2)CC1
> 50 µM (inactive)	O=S(=O)(Nc1ccc(CCN2CCCCC2)cc1)c1cccc(Cl)c1
> 50 µM (inactive)	CN1CCN(Cc2ccc(NS(=O)(=O)c3cccc(Cl)c3)cc2)CC1
> 50 µM (inactive)	O=C(Nc1ccc(CN2CCCCC2)cc1)c1cc(Cl)ccc1O
18.2 µM (inactive)	COc1ccc(Cl)c(C(=O)Nc2ccc(CN3CCN(C(=O)OC(C)(C)C)CC3)cc2)c1
< 0.391 µM	O=C(Nc1ccc(CN2CCCCC2)cc1)c1cc(Cl)cc(OCc2ccccc2)c1
23.3 µM (inactive)	CN1CCN(Cc2ccc(NS(=O)(=O)c3cc(Cl)cc(Cl)c3)cc2)CC1
2.3 µM	O=C(Nc1ccc(CCN2CCCCC2)cc1)c1cccc(OCc2ccccc2)c1
> 50 µM (inactive)	CN1CCN(CCc2ccc(NS(=O)(=O)c3ccc(F)c(Cl)c3)cc2)CC1
> 50 µM (inactive)	COc1ccc(Cl)cc1C(=O)Nc1ccc(N2CCCCC2)cc1
15 µM	O=C(Nc1ccc(CN2CCCCC2)cc1)c1cccc(Cl)c1

IC50	SMILES
2.24 µM	COc1ccc(Cl)cc1C(=O)Nc1ccc(CN2CCNCC2)cc1
1.92 µM	CN1CCN(c2ccc(NC(=O)c3cccc(OCc4ccccc4)c3)cc2)CC1
6 µM	COc1ccc(Cl)cc1C(=O)Nc1ccc(CCN2CCCCC2)cc1
> 50 µM (inactive)	O=S(=O)(Nc1ccc(CCN2CCCCC2)cc1)c1ccc(F)c(Cl)c1
1.72 µM	COc1ccc(Cl)cc1C(=O)Nc1ccc(CN2CCCCC2)cc1
3.31 µM	CN1CCN(Cc2ccc(NC(=O)c3cccc(OCc4ccccc4)c3)cc2)CC1
0.95 µM	O=C(Nc1ccc(CN2CCCCC2)cc1)c1cccc(OCc2ccccc2)c1
> 50 µM (inactive)	CN1CCN(c2ccc(NC(=O)c3ccc(OCc4ccccc4)cc3)cc2)CC1
10.7 µM	COc1ccc(Cl)cc1C(=O)Nc1ccc(CCN2CCN(C)CC2)cc1
> 50 µM (inactive)	COc1ccc(Cl)c(C(=O)Nc2ccc(CCN3CCCCC3)cc2)c1
0.69 µM	CN1CCN(c2ccc(Cl)cc2NC(=O)/C=C/c2cccc(F)c2)CC1
> 50 µM (inactive)	COc1ccc(Cl)cc1S(=O)(=O)Nc1ccc(CN2CCN(C)CC2)cc1
> 50 µM (inactive)	CN1CCN(c2ccc(NS(=O)(=O)c3cccc(Cl)c3)cc2)CC1
> 50 µM (inactive)	COc1ccc(Cl)c(C(=O)Nc2cccc(CN3CCN(C(=O)OC(C)(C)C)CC3)c2)c1
> 50 µM (inactive)	CCN(CC)c1ccc(NC(=O)c2ccc(OC)c(Cl)c2)cc1
< 0.391 µM	O=C(Nc1ccc(CN2CCCCC2)cc1)c1ccc(Cl)c(OCc2ccccc2)c1
> 50 µM (inactive)	COc1ccc(Cl)cc1S(=O)(=O)Nc1ccc(N2CCN(C)CC2)cc1
> 50 µM (inactive)	COc1ccc(Cl)cc1S(=O)(=O)Nc1ccc(CCN2CCCCC2)cc1
13.8 µM	COc1ccc(Cl)cc1C(=O)Nc1ccc(CCN2CCOCC2)cc1
> 50 µM (inactive)	CN1CCN(Cc2ccc(NS(=O)(=O)c3ccc(F)c(Cl)c3)cc2)CC1

IC50	SMILES
> 50 µM (inactive)	COc1ccccc1C(=O)Nc1ccc(C(=O)N2CCCCC2)cc1
2.44 µM	O=C(Nc1ccc(CN2CCCCC2)cc1)c1cc(OCc2ccccc2)ccc1Cl
4.74 µM	COc1ccc(Cl)cc1C(=O)Nc1cccc(CN2CCNCC2)c1
6.13 µM	COc1ccc(Cl)cc1C(=O)Nc1ccc(N2CCN(C)CC2)cc1
> 50 µM (inactive)	COc1ccc(NC(=O)c2cc(Cl)cc(Cl)c2OC)cc1
> 50 µM (inactive)	COc1ccc(Cl)c(C(=O)Nc2ccc(CCN3CCOCC3)cc2)c1
> 50 µM (inactive)	COc1ccc(Cl)cc1S(=O)(=O)Nc1ccc(CN2CCCCC2)cc1
10.1 µM	COc1ccc(Cl)cc1C(=O)Nc1ccc(N(C)C)cc1
14.9 µM	COc1ccc(Cl)cc1C(=O)Nc1ccc(CN2CCN(C(=O)OC(C)(C)C)CC2)cc1
> 50 µM (inactive)	COc1ccc(Cl)c(C(=O)Nc2ccc(CCN3CCN(C)CC3)cc2)c1
47.8 µM (inactive)	CN1CCN(CCc2ccc(NS(=O)(=O)c3cc(Cl)cc(Cl)c3)cc2)CC1
20.1 µM	COc1ccc(Cl)cc1C(=O)Nc1ccc(CCN2CCN(C(=O)OC(C)(C)C)CC2)cc1
5.28 µM	COc1ccc(Cl)cc1C(=O)Nc1ccc(CCN2CCNCC2)cc1
15.1 µM	COc1ccc(Cl)cc1C(=O)Nc1ccc(CN2CCOCC2)cc1
> 50 µM (inactive)	COc1ccc(Cl)cc1C(=O)Nc1ccc(N2CCOCC2)cc1
> 50 µM (inactive)	COc1ccc(Cl)c(C(=O)Nc2ccc(CN3CCN(C)CC3)cc2)c1
25.1 µM (inactive)	O=S(=O)(Nc1ccc(CCN2CCCCC2)cc1)c1cc(Cl)cc(Cl)c1
44.9 µM (inactive)	CN1CCN(c2ccc(NS(=O)(=O)c3cc(Cl)cc(Cl)c3)cc2)CC1
